Source: ChEMBL document CHEMBL5441142, “Probing the Merck KGaA Open Global health library for novel starting points for anti-schistosomal drug discovery” (2024)
Active and inactive are the calls of the source.

Legend:
[1] = tested on: Schistosoma mansoni; test: In vitro activity screen on S. mansoni schistosomula at 10 uM. Compound-induced effects were assessed by quantifying larva motility and phenotype using Roboworm.; type: functional, organism-based; design: test concentration 10 uM, temperature 37 degree C, time incubation 72 h; conditions: Puerto Rican
[2] = tested on: Schistosoma mansoni; test: Ex vivo activity screen on S. mansoni adult worms at 20 uM. Parasite motility after compound treatment was assessed at 72 h using the WHO-TDR scoring metric.; type: functional, organism-based; design: test concentration 20 uM, temperature 37 degree C; conditions: Puerto Rican

## COc1cc(OC)c(CCNC(=O)c2cn3cc(-c4cc(OCC#N)ccc4OC)nc3s2)c(OC)c1
[1]
  In vitro activity: Active
[2]
  Ex-vivo screening: inactive

## COCCCOc1ccc(OC)c(-c2cn3cc(C(=O)NCCc4c(OC)cc(OC)cc4OC)ccc3n2)c1
[1]
  In vitro activity: Active
[2]
  Ex-vivo screening: inactive

## Clc1cccc(OCc2ncc3nccnc3n2)c1Cl
[1]
  In vitro activity: Active
[2]
  Ex-vivo screening: inactive

## CCC(C)[S+]([O-])c1ccc(-c2nc3ccncc3[nH]2)c(OC)c1 (centres undefined)
[1]
  In vitro activity: inactive

## COc1nc(/C=C/c2nc3n(n2)CCCC3c2ccccc2C(F)(F)F)ccc1-n1cnc(C)c1 (centres undefined)
[1]
  In vitro activity: inactive

## CC1=C(C(=O)N2CCc3ncc(C(F)(F)F)cc3C2)C2(CCN([C@H]3CC[C@@H](O)CC3)CC2)OC1=O
[1]
  In vitro activity: inactive

## CC1(C)Oc2ccc(C#N)cc2[C@@H](n2ccccc2=O)[C@@H]1O
[1]
  In vitro activity: inactive

## O=C(O)C1CCN(c2nc(NCc3ccc4c(c3)OCO4)c3c4c(sc3n2)CCCC4)CC1
[1]
  In vitro activity: inactive

## CCCc1nn(C)c2c(=O)[nH]c(-c3cc(S(=O)(=O)Oc4ccncc4)ccc3OCC)nc12
[1]
  In vitro activity: inactive

## CCOc1cc(C2=NN(C(=O)c3ccc(NC(=O)c4cccnc4)cc3)CCC2)ccc1OC
[1]
  In vitro activity: inactive

## Cc1cc(OC(F)(F)F)c(S(C)(=O)=O)cc1C(=O)N=C(N)N
[1]
  In vitro activity: inactive

## CCSc1cc(C)c(C(=O)N=C(N)N)cc1S(C)(=O)=O
[1]
  In vitro activity: inactive

## COc1cc([S+](C)[O-])ccc1-c1nc2cnccc2[nH]1 (centres undefined)
[1]
  In vitro activity: inactive

## COCc1cc(-c2nc(-c3ccc(CN(C)CC(=O)O)c(F)c3)no2)ccc1-c1ccccc1C
[1]
  In vitro activity: inactive

## COCc1cc(-c2nc(-c3cccc(CN(C)CC(=O)O)c3)no2)ccc1-c1ccccc1
[1]
  In vitro activity: inactive

## CCCc1nn(C)c2c(=O)[nH]c(-c3cc(S(=O)(=O)Oc4nc(C)ccc4C#N)ccc3OCC)nc12
[1]
  In vitro activity: inactive

## O=C(O)CCC(=O)OCC1(c2ccc(Cl)cc2)OCC(c2ccccc2)(c2ccccc2)CO1
[1]
  In vitro activity: inactive

## Cc1cc(C(=O)C(C)SN2C(=O)c3ccccc3C2=O)ccc1O (centres undefined)
[1]
  In vitro activity: inactive

## CCC(C)Oc1ccc(-c2nc(-c3cc(F)cc(CN(C)CC(=O)O)c3)no2)cc1COC (centres undefined)
[1]
  In vitro activity: inactive

## CCc1ccccc1N/C=C1\C(=O)N(c2ccc(S(=O)(=O)O)cc2)N=C1C
[1]
  In vitro activity: inactive

## COc1cc(Nc2nccn3nc(Nc4cccc(C(F)(F)F)c4)nc23)cc(OC)c1
[1]
  In vitro activity: inactive

## O=C(O)c1ccc(-c2nc(NCc3ccc4c(c3)OCO4)c3c4c(oc3n2)CCCC4)cc1
[1]
  In vitro activity: inactive

## COc1ccc(CNc2nc(CCCC(=O)O)nc3oc4c(c23)CCCC4)cc1Cl
[1]
  In vitro activity: inactive

## COCc1cc(-c2nc(-c3ccc(CN(C)CC(=O)O)c(F)c3)no2)ccc1-c1cccc(F)c1C
[1]
  In vitro activity: inactive

## COc1ccc(CNc2nc(-c3ccc(C(=O)O)cc3)nc3sc4c(c23)CCCC4)cc1Cl
[1]
  In vitro activity: inactive

## CCCc1nn(C)c2c(NCc3ccc(OC)c(Cl)c3)nc(CCCCC(=O)NS(C)(=O)=O)nc12
[1]
  In vitro activity: inactive

## Cc1cc(Nc2ccccn2)c(S(C)(=O)=O)cc1C(=O)N=C(N)N
[1]
  In vitro activity: inactive

## CCc1cc2c(NCc3ccc(OC)c(Cl)c3)nc(-c3ccc(C(=O)O)cc3)nc2s1
[1]
  In vitro activity: inactive

## CCCCc1nc2ccn(Cc3ccccc3C(=O)O)c(=O)c2n1Cc1ccc(-c2ccccc2-c2nn[nH]n2)cc1
[1]
  In vitro activity: inactive

## Cc1cc2c(cc1C(=O)N=C(N)N)S(=O)(=O)C(C)(C)/C2=N\O
[1]
  In vitro activity: inactive

## CCCCc1nc2ccn(CC(=O)N3CCCCC3)c(=O)c2n1Cc1ccc(-c2ccccc2S(=O)(=O)NC(=O)OCc2ccccc2)cc1F
[1]
  In vitro activity: inactive

## O=c1nc(Nc2cccc(Oc3ccncc3)c2)[nH]c2ccccc12
[1]
  In vitro activity: inactive

## CC1(C)C=C(n2ccccc2=O)c2cc(C#N)ccc2O1
[1]
  In vitro activity: inactive

## Cc1cc(C2CCCC2)c(S(C)(=O)=O)cc1C(=O)N=C(N)N
[1]
  In vitro activity: inactive

## COc1ccc(OCc2nn[nH]n2)cc1-c1cn2cc(C(=O)NCCc3c(OC)cccc3OC)sc2n1
[1]
  In vitro activity: inactive

## CCOc1cc(-c2nc(-c3ccc(CN(C)CC(=O)O)c(F)c3)no2)ccc1-c1ccccc1C
[1]
  In vitro activity: inactive

## CCc1cc(Oc2cccnc2)c(S(C)(=O)=O)cc1C(=O)N=C(N)N
[1]
  In vitro activity: inactive

## COCc1cc(-c2nc(-c3ccc(CN(C)CC(=O)O)c(F)c3)no2)ccc1-c1ccccc1F
[1]
  In vitro activity: inactive

## COCc1cc(-c2nc(-c3cccc(CN(C)CCC(=O)O)c3)no2)ccc1N1CCCCC1C (centres undefined)
[1]
  In vitro activity: inactive

## CCOC(=O)c1ccc(C2=CSC3=Nc4ccccc4CCN23)cc1
[1]
  In vitro activity: inactive

## O=C(O)c1ccc2[nH]cc(CCCCN3CC=C(c4ccccc4)CC3)c2c1
[1]
  In vitro activity: inactive

## CCCCCCN(Cc1ccc(C#Cc2ccc(CCCC)cc2)cc1)C(=O)c1ccc(O)c(C(=O)O)c1
[1]
  In vitro activity: inactive

## CCC(C)Oc1ccc(-c2nc(-c3ccc([C@@H](C)NCC(=O)O)cc3)no2)cc1COC (some centres undefined)
[1]
  In vitro activity: inactive

## COc1nc(/C=C/c2nc3n(n2)CCC[C@@H]3c2ccccc2C(F)(F)F)ccc1-n1cnc(C)c1
[1]
  In vitro activity: inactive

## Cn1cc(-c2cnc3[nH]cc(-c4cn(Cc5cccc(F)c5F)nn4)c3c2)cn1
[1]
  In vitro activity: inactive

## CC(Sc1nc(-c2ccc(Cl)cc2)c(-c2ccc(Cl)cc2)o1)C(=O)NCC(=O)O (centres undefined)
[1]
  In vitro activity: inactive

## COCc1cc(-c2nc(-c3cccc(CN(C)CC(=O)O)c3)no2)ccc1N1CCCCC1
[1]
  In vitro activity: inactive

## COc1cc(NC(=O)c2cn(Cc3ccc(Cl)cc3)nn2)ccc1-n1cnc(C)c1
[1]
  In vitro activity: inactive

## CCc1cc(C(=O)NCc2ccc(OC)c(Cl)c2)c(NC(=O)c2ccc(C(=O)O)cc2)s1
[1]
  In vitro activity: inactive

## O=C(O)c1ccc(C(=O)Nc2[nH]c3ccccc3c2C(=O)NCc2ccc3c(c2)OCO3)cc1
[1]
  In vitro activity: inactive

## Cc1nc2c3c(nn2c(C)c1Cl)CN(C(=O)c1ccc(F)cc1OC1C[C@H]2COC[C@H](C1)N2C)C3 (some centres undefined)
[1]
  In vitro activity: inactive

## COc1ccc(CNc2nc(CCCCC(=O)O)nc3sc4c(c23)CCCC4)cc1Cl
[1]
  In vitro activity: inactive

## COc1ccc(OC)c(-c2cn3cc(C(=O)NCCc4cccc(OC)c4OC)ccc3n2)c1
[1]
  In vitro activity: inactive

## CC/N=C(\c1ccc(OC)c(OC)c1)N1CCCc2cc(C3=NNC(=O)SC3C)ccc21 (centres undefined)
[1]
  In vitro activity: inactive

## CCC(CC)N1CCC2(CC1)OC(=O)C(C)=C2C(=O)N1CCc2ncc(C(F)(F)F)cc2C1
[1]
  In vitro activity: inactive

## Cc1cc(OC(C)(C)C)c(S(C)(=O)=O)cc1C(=O)N=C(N)N
[1]
  In vitro activity: inactive

## COc1cc(OC)c(CCNC(=O)c2ccc3nc(-c4cc(OC)ccc4OC)cn3c2)c(OC)c1
[1]
  In vitro activity: inactive

## COc1ccc(CCNC(=O)c2cn3cc(-c4cc(OCCCO)ccc4OC)nc3s2)c(OCCCO)c1
[1]
  In vitro activity: inactive

## Cc1cc2c(cc1C(=O)N=C(N)N)S(=O)(=O)CCC2C (centres undefined)
[1]
  In vitro activity: inactive

## COCCCN1CCC2(CC1)OC(=O)C(C)=C2C(=O)N1CCc2ccc(C(F)(F)F)cc2C1
[1]
  In vitro activity: inactive

## COc1cc(SC(C)C#N)ccc1-c1nc2ccncc2[nH]1 (centres undefined)
[1]
  In vitro activity: inactive

## Cc1ccccc1-c1ccc(-c2nc(-c3ccc(CN(C)CCC(=O)O)c(F)c3)no2)cc1OCC1CC1
[1]
  In vitro activity: inactive

## C1=C(c2ccccc2)CCN(CCCCc2c[nH]c3ccccc23)C1
[1]
  In vitro activity: inactive

## CC1(C)Oc2ccc(C#N)cc2[C@@H](n2ccccc2=O)[C@]1(C)O
[1]
  In vitro activity: inactive

## CCC(C)c1cc(C)c(C(=O)N=C(N)N)cc1S(C)(=O)=O (centres undefined)
[1]
  In vitro activity: inactive

## COCc1cc(-c2nc(-c3ccc(CN(C)CC(=O)O)cc3)no2)ccc1-c1ccccc1C
[1]
  In vitro activity: inactive

## CCc1cc(C)c(C(=O)N=C(N)N)cc1S(C)(=O)=O
[1]
  In vitro activity: inactive

## CCOc1cc(C2=NN(C(=O)c3ccc(NC(=O)c4ccc(OC)cc4)cc3)CCC2)ccc1OC
[1]
  In vitro activity: inactive

## O=C(O)c1ccc(C(=O)Nc2sc3c(c2C(=O)NCc2ccc4c(c2)OCO4)CCCC3)cc1
[1]
  In vitro activity: inactive

## C=CC(C)c1cc(C)c(C(=O)N=C(N)N)cc1S(C)(=O)=O (centres undefined)
[1]
  In vitro activity: inactive

## CC1=C(C(=O)N2CCc3ncc(C(F)(F)F)cc3C2)C2(CCN(C3CCCC3)CC2)OC1=O
[1]
  In vitro activity: inactive

## CC1=C(C(=O)N2CCc3ccc(C(F)(F)F)cc3C2)C2(CCN(C3CCOCC3)CC2)OC1=O
[1]
  In vitro activity: inactive

## Cc1cc(-c2ccc[nH]2)c(S(C)(=O)=O)cc1C(=O)N=C(N)N
[1]
  In vitro activity: inactive

## COc1ccc(N2C(=O)c3ccccc3NC23CN(Cc2cccc(C)c2)C3)cc1
[1]
  In vitro activity: inactive

## CC(/C=C/c1cc(/C=C/C(C)=C/C(=O)O)cc(-c2ccc(C(F)(F)F)cc2)c1)=C\C(=O)O
[1]
  In vitro activity: inactive

## CC1=C(C(=O)N2CCc3ccc(C(F)(F)F)cc3C2)C2(CCN(C3CCCCC3)CC2)OC1=O
[1]
  In vitro activity: inactive

## CC(c1ccc2c(c1)CCC2)N1CCN(c2ccccc2)CC1 (centres undefined)
[1]
  In vitro activity: inactive

## CSc1cc(C)c(C(=O)N=C(N)N)cc1S(C)(=O)=O
[1]
  In vitro activity: inactive

## COc1cc(OC)c(CCNC(=O)c2cn3cc(-c4cc(OCC(=O)NCCO)ccc4OC)nc3s2)c(OC)c1
[1]
  In vitro activity: inactive

## COC(=O)c1cc(C(=O)N=C(N)N)c(C)cc1C
[1]
  In vitro activity: inactive

## CCCc1nn(C)c2c(=O)[nH]c(-c3cc(C(=O)N=C(N)N)ccc3OCC)nc12
[1]
  In vitro activity: inactive

## CCCN1CCC2(CC1)OC(=O)C(C)=C2C(=O)N1CCc2ncc(C(F)(F)F)cc2C1
[1]
  In vitro activity: inactive

## COc1ccc(CNc2nc(CCCCC(=O)O)nc3sc4ccccc4c23)cc1Cl
[1]
  In vitro activity: inactive

## COCc1cc(-c2nc(-c3cccc(CN(C)CC(=O)O)c3)no2)ccc1N1CCCC1C (centres undefined)
[1]
  In vitro activity: inactive

## COCc1cc(-c2nc(-c3cc(F)cc(CN(C)CC(=O)O)c3)no2)ccc1-c1ccccc1C
[1]
  In vitro activity: inactive

## CN(C)c1cccc2c(S(=O)(=O)Nc3ccc4nsnc4c3)cccc12
[1]
  In vitro activity: inactive
